According to ChEMBL document CHEMBL4251748, “Discovery of Cytochrome P450 4F11 Activated Inhibitors of Stearoyl Coenzyme A Desaturase” (J Med Chem, 2018):

Assays:
Type in all cases: functional, cell-based
NCI-H2122 = assay: Cytotoxicity against human NCI-H2122 cells incubated for 4 days; settings: NCI-H2122, 96 h
NCI-H1155 [1] = assay: Cytotoxicity against human NCI-H1155 cells incubated for 4 days in presence of sodium oleate; settings: NCI-H1155, 96 h
NCI-H1155 [2] = assay: Cytotoxicity against human NCI-H1155 cells expressing CYP4F11 incubated for 4 days; settings: NCI-H1155, 96 h
NCI-H1155 [3] = assay: Cytotoxicity against human NCI-H1155 cells expressing pLVX empty vector incubated for 4 days; settings: NCI-H1155, 96 h
NCI-H1155 [4] = assay: Cytotoxicity against human NCI-H1155 cells expressing CYP4F11 incubated for 4 days in presence of sodium oleate; settings: NCI-H1155, 96 h

Row | Structure (SMILES) | EC50 (NCI-H2122) [µM] | other results
1 | COc1ccc(CCNC(=O)C(=O)N2CCc3ccccc32)cc1 | > 50 | –
2 | COc1ccc(CCNC(=O)c2nc3ccccc3[nH]2)cc1 | > 50 | –
3 | COc1ccc(CCNC(=O)C(=O)Nc2ccc(F)c(Cl)c2)cc1 | 0.74 | –
4 | COc1ccc(CCNC(=O)c2ccc3cccc(O)c3n2)cc1 | 30 | –
5 | COc1ccc(CCNC(=O)N(C)C(=O)c2ccc(C(=O)c3ccccc3)cc2)cc1 | 6.2 | –
6 | COc1ccc(CCNC(=O)C(=O)Nc2cccc(Br)n2)cc1 | > 50 | –
7 | COc1ccc(CCNC(=O)c2ccc(Cl)cc2)cc1 | > 50 | –
8 | COc1ccc(CCNC(=O)NC(=O)c2ccc(C(=O)N3CCCCC3)cc2)cc1 | 2.3 | –
9 | O=C(NCCc1ccccc1)C(=O)Nc1ccc(Cl)cc1 | > 50 | –
10 | COc1ccc(CCNC(=O)NC(=O)c2ccc(Br)cc2)cc1 | 0.16 | –
11 | COc1ccc(CCNC(=O)NC(=O)c2ccc(C(=O)O)cc2)cc1 | > 50 | –
12 | COc1ccc(CCNC(=O)C(=O)Nc2ccccc2F)cc1 | > 50 | –
13 | COc1ccc(CCNC(=O)Nc2ccc(Cl)cc2)cc1 | > 50 | –
14 | COc1ccc(CCNC(=O)C(=O)Nc2ccccc2Br)cc1 | > 50 | –
15 | COC(=O)c1ccc(C(=O)NC(=O)NCCc2ccc(OC)cc2)cc1 | > 50 | –
16 | COc1ccccc1CCNC(=O)C(=O)Nc1ccc(Cl)cc1 | > 50 | –
17 | COc1ccc(CCNC(=O)C(=O)Nc2ccc(C)c(Cl)c2)cc1 | 0.6 | –
18 | COc1ccc(CCNC(=O)C(=O)Nc2cc(Cl)cc(C(F)(F)F)c2)cc1 | > 50 | –
19 | CCOc1ccc(CCNC(=O)C(=O)Nc2ccc(Cl)cc2)cc1 | > 50 | –
20 | COc1ccc(CCNC(=O)C(=O)Nc2ccc(Cl)c(C(F)(F)F)c2)cc1 | 1.4 | –
21 | COc1ccc(CCNC(=O)C(=O)Nc2cccnc2F)cc1 | > 50 | –
22 | COc1ccc(CCNC(=O)c2ccc3ccccc3n2)cc1 | > 50 | EC50 (NCI-H1155 [1]): > 50 µM; EC50 (NCI-H1155 [2]): > 50 µM; EC50 (NCI-H1155 [3]): > 50 µM; EC50 (NCI-H1155 [4]): > 50 µM
23 | COc1ccc(CCN(C)C(=O)C(=O)Nc2ccc(Cl)cc2)cc1 | 10.5 | –
24 | COc1ccc(CCN(C)C(=O)N(C)C(=O)c2ccc(C(=O)c3ccccc3)cc2)cc1 | 16 | –

Row | Structure (SMILES) | EC50 (NCI-H2122) [µM] | other results
25 | COc1ccc(CCNC(=O)C(=O)Nc2ccc(OC)c(C)c2)cc1 | 0.81 | –
26 | COc1ccc(CCN(C)C(=O)NC(=O)c2ccc(C(=O)c3ccccc3)cc2)cc1 | 8.7 | –
27 | COc1ccc(CCNC(=O)NC(=O)c2ccc(C(N)c3ccccc3)cc2)cc1 (configuration not stated) | 0.32 | –
28 | O=C(NCCc1ccc(Br)cc1)C(=O)Nc1ccc(Cl)cc1 | > 50 | –
29 | COc1ccc(C(C)CNC(=O)C(=O)Nc2ccc(Cl)cc2)cc1 (configuration not stated) | 3.66 | EC50 (NCI-H1155 [1]): > 50 µM; EC50 (NCI-H1155 [2]): > 50 µM; EC50 (NCI-H1155 [3]): > 50 µM; EC50 (NCI-H1155 [4]): > 50 µM
30 | COc1ccc(CCNC(=O)C(=O)N2CCCCC2)cc1 | > 50 | –
31 | COc1ccc(CCNC(=O)C(=O)Nc2ccc(C(=O)c3ccc(OC)cc3)cc2)cc1 | 0.081 | –
32 | COc1ccc(CCNC(=O)C(=O)N2Cc3ccccc3C2)cc1 | > 50 | –
33 | COc1ccc(CCNC(=O)NC(=O)c2ccc(OCc3ccccc3)cc2)cc1 | 0.031 | –
34 | Cc1ccc(CCNC(=O)C(=O)Nc2ccc(Cl)cc2)cc1 | > 50 | –
35 | COc1ccc(CCNC(=O)C(=O)Nc2ccc(F)cc2)cc1 | 0.29 | –
36 | COc1ccc(CCNC(=O)C(=O)Nc2cccc(F)n2)cc1 | > 50 | –
37 | COc1ccc(CCNC(=O)C(=O)Nc2ccc(C)c(OC)c2)cc1 | > 50 | –
38 | COc1ccc(CCNC(=O)NC(=O)c2cccc(-c3ccccc3)c2)cc1 | > 50 | –
39 | O=C(NCCc1ccccc1O)C(=O)Nc1ccc(Cl)cc1 | 1.72 | –
40 | CCOc1cccc(NC(=O)C(=O)NCCc2ccc(OC)cc2)c1 | 24 | –
41 | COc1ccc(CCCCNC(=O)c2ccc(Cl)cc2)cc1 | 3.27 | –
42 | COc1ccc(CCNC(=O)C(=O)Nc2ccc(Cl)c([N+](=O)[O-])c2)cc1 | 1.3 | –
43 | COc1ccc(CCNC(=O)C(=O)NCc2ccc(Cl)cc2)cc1 | > 50 | –
44 | COc1ccc(CCNC(=O)NC(=O)c2ccc(C(O)c3ccccc3)cc2)cc1 (configuration not stated) | 0.097 | –
45 | COc1ccc(CCNC(=O)C(=O)Nc2ccc(Cl)cc2)cc1OC | > 50 | –
46 | COc1ccc(CCNC(=O)C(=O)Nc2ccc(Cl)cn2)cc1 | 0.35 | –
47 | COc1ccc(CCNC(=O)C(=O)Nc2ccc(C)c(F)c2)cc1 | 0.31 | –
48 | COc1ccc(CCNC(=O)C(=O)Nc2cc(Cl)cc(Cl)c2)cc1 | > 50 | –

Row | Structure (SMILES) | EC50 (NCI-H2122) [µM] | other results
49 | COc1ccc(CCNC(=O)C(=O)Nc2ccncc2)cc1 | > 50 | –
50 | COc1ccc(CCNC(=O)c2nc3ccccc3o2)cc1 | 30 | –
51 | COc1ccc(CCNC(=O)C(=O)Nc2ccccc2)cc1 | 0.46 | –
52 | O=C(NCCc1ccc(Cl)cc1)C(=O)Nc1ccc(Cl)cc1 | > 50 | –
53 | COc1ccc(CCNC(=O)C(=O)Nc2ccc(Cl)c(C#N)c2)cc1 | 0.4 | –
54 | COc1ccc(CCNC(=O)C(=O)Nc2cnccn2)cc1 | > 50 | –
55 | COc1ccc(CCNC(=O)C(=O)Nc2cncc(Cl)c2)cc1 | 5.9 | –
56 | COc1ccc(CCNC(=O)C(=O)NCCc2ccc(OC)cc2)cc1 | > 50 | –
57 | COc1ccc(CCNC(=O)C(=O)Nc2cccc(C#N)c2)cc1 | 0.41 | –
58 | O=C(NCCc1ccc(F)cc1)C(=O)Nc1ccc(Cl)cc1 | 48 | –
59 | COc1ccc(CCNC(=O)C(=O)Nc2cncc(C)c2)cc1 | 2.6 | –
60 | COc1ccc(CCNC(=O)C(=O)NC2CCCCCC2)cc1 | > 50 | –
61 | COc1ccc(CCNC(=O)c2nc3ccccc3c(=O)[nH]2)cc1 | > 50 | –
62 | COc1ccc(CCNC(=O)C(=O)Nc2ccc(Br)cn2)cc1 | 0.29 | –
63 | COc1ccc(CCNC(=O)NC(=O)c2ccc(Oc3ccccc3)cc2)cc1 | 0.031 | –
64 | COc1ccc(CCNC(=O)C(=O)Nc2ccc(C#N)cc2)cc1 | 0.71 | –
65 | COc1ccc(CCNC(=O)C(=O)Nc2ccccc2OC)cc1 | > 50 | –
66 | COc1ccc(CCNC(=O)C(=O)NC2CCCCC2)cc1 | > 50 | –
67 | COc1ccc(CCNC(=O)C(=O)NC2CCC2)cc1 | > 50 | –
68 | COc1ccc(CCNC(=O)C(=O)O)cc1 | > 50 | –
69 | COc1ccc(CCNC(=O)C(=O)Nc2ccc(Cl)nc2)cc1 | 0.44 | –
70 | COc1ccc(CCNC(=O)NC(=O)c2ccc(C(=O)c3ccccc3)cc2)cc1 | 0.11 | –
71 | COc1ccc(CCNC(=O)NC(=O)c2ccc(C(=O)c3ccccc3C)cc2)cc1 | 0.32 | –
72 | COc1ccc(CCNC(=O)NC(=O)c2ccc(C(=O)N3CCOCC3)cc2)cc1 | > 50 | –

Row | Structure (SMILES) | EC50 (NCI-H2122) [µM] | other results
73 | COc1ccc(CCNC(=O)C(=O)Nc2cc(F)cc(Cl)c2)cc1 | > 50 | –
74 | COc1ccc(CCNC(=O)C(=O)Nc2cnccc2C)cc1 | > 50 | –
75 | COc1ccc(CCNC(=O)C(=O)Nc2cccc(Cl)c2)cc1 | 0.38 | –
76 | COc1ccc(CCNC(=O)C(=O)Nc2ccc(Cl)c(Cl)c2)cc1 | 0.49 | –
77 | COc1ccc(CCNC(=O)CNc2ccc(Cl)cc2)cc1 | > 50 | –
78 | COc1ccc(CCNC(=O)C(=O)NC2CCCC2)cc1 | > 50 | –
79 | COc1ccc(CCNC(=O)C(=O)Nc2ccc(C(=O)c3ccccc3)cc2)cc1 | 0.085 | –
80 | COc1ccc(CCNC(=O)C(=O)N2CCc3ccccc3C2)cc1 | > 50 | –
81 | COc1ccc(CCNC(=O)NC(=O)c2ccc(OC)cc2)cc1 | 1 | –
82 | COc1ccc(CCNC(=O)COc2ccc(Cl)cc2)cc1 | > 50 | –
83 | COc1ccc(CCNC(=O)NC(=O)c2ccc(Cl)cc2)cc1 | 0.15 | –
84 | COc1ccc(CC(C)NC(=O)C(=O)Nc2ccc(Cl)cc2)cc1 (configuration not stated) | 3.53 | EC50 (NCI-H1155 [1]): 12 µM; EC50 (NCI-H1155 [2]): 16.4 µM; EC50 (NCI-H1155 [3]): 9.5 µM; EC50 (NCI-H1155 [4]): 7.6 µM
85 | O=C(NCCc1cccc(O)c1)C(=O)Nc1ccc(Cl)cc1 | 2.4 | –
86 | COc1ccc(CCNC(=O)C(=O)Nc2ccc(Cl)c(F)c2)cc1 | 0.29 | –
87 | COc1ccc(CCCNC(=O)c2ccc(Cl)cc2)cc1 | > 50 | –
88 | COc1ccc(CCNC(=O)C(=O)Nc2ccccn2)cc1 | > 50 | –
89 | COc1ccc(CCNC(=O)c2ccc3ccccc3c2O)cc1 | 36 | –
90 | COc1ccc(CCNC(=O)NC(=O)c2ccc(-c3ccccc3)cc2)cc1 | 0.17 | –
91 | COc1ccc(CCNC(=O)c2cnc3ccccc3n2)cc1 | > 50 | –
92 | COc1ccc(CCNC(=O)NC(=O)c2cccc(Br)c2)cc1 | > 50 | –
93 | COc1ccc(CCNC(=O)C(=O)N2CCCC2)cc1 | > 50 | –
94 | COc1ccc(CCNC(=O)C(=O)Nc2ccc(C(=O)c3ccc(O)cc3)cc2)cc1 | > 50 | –
95 | COc1cccc(CCNC(=O)C(=O)Nc2ccc(Cl)cc2)c1 | > 50 | –
